Results from PubChem BioAssay (NCI).
“And” between values parts separate entries of the source, which are not always exact repeats. Identical values can stand only once.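 Five compound concentrations were applied to cells in 96-well plates for 48 hours; endpoints were derived by simple linear interpolation of the resulting dose-response curve. GI50 marks 50% less growth. Definition used: TGI = concentration required for complete inhibition of growth.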

Legend:
Assay in all cases: NCI-60 cell line screen, 48 h
HCC-2998 colon = system: HCC-2998 colon
K-562 leukemia = system: K-562 leukemia
MALME-3M melanoma = system: MALME-3M melanoma
MCF7 breast = system: MCF7 breast
MDA-MB-435 = system: MDA-MB-435
NCI-H460 lung = system: NCI-H460 lung
SF-539 CNS = system: SF-539 CNS
SNB-19 CNS = system: SNB-19 CNS
SNB-75 CNS = system: SNB-75 CNS
TK-10 renal = system: TK-10 renal

Compound	TGI (HCC-2998 colon) [µM]	TGI (K-562 leukemia) [µM]	TGI (MALME-3M melanoma) [µM]	TGI (MCF7 breast) [µM]	TGI (MDA-MB-435) [µM]	TGI (NCI-H460 lung) [µM]	TGI (SF-539 CNS) [µM]	TGI (SNB-19 CNS) [µM]	TGI (SNB-75 CNS) [µM]	TGI (TK-10 renal) [µM]	GI50 (HCC-2998 colon) [µM]	GI50 (K-562 leukemia)	GI50 (MALME-3M melanoma) [µM]	GI50 (MCF7 breast) [µM]	GI50 (MDA-MB-435) [µM]	GI50 (NCI-H460 lung) [µM]	GI50 (SF-539 CNS) [µM]	GI50 (SNB-75 CNS) [µM]	GI50 (TK-10 renal) [µM]
COC(=O)c1ccc2c(O)c(O)ccc2c1	29.6	5.43	24.2	36.6	3.3	39.3	34.2	27.5	25.4	36.2									
COc1nc(N)c(NC2OC(CO)C(O)C2O)c(=O)[nH]1 (stereo not given)	> 100	> 100	> 100	> 100	> 100	> 100	> 100	> 100	> 100	> 100									
CCC1(CC)CC(=NNS(=O)(=O)c2ccc(C)cc2)C1	> 100	> 100	> 100	> 100	> 100	> 100	> 100	> 100	> 100	> 100									
CCC(NC(C)c1ccccc1)C(O)c1ccc(OCc2ccccc2)c(OCc2ccccc2)c1 (stereo not given)	6.49	9.44	28.9	31.1	26.7	32.1	32.8	28.6	23.2	32.4									
CC1C(c2ccccc2)OP(=O)(OC(C#N)c2ccccc2)N1C (stereo not given)	> 100	> 100	> 100	> 100	> 100	> 100	> 100	> 100	> 100	> 100									
CC1(C)CS(=O)(=O)CC(C)(C)C(=N/N)/C1=N\N	> 100	> 100	> 100	> 100	> 100	> 100	> 100	> 100	> 100	> 100									
COc1ccc(NC2Oc3cc4c(cc3C(c3cccc(OC)c3OC)C2C)OCO4)cc1 (stereo not given)	> 100	70.6	82.3	> 100	43.1	> 100	> 100	> 100	> 100	> 100									
COC(=O)c1c2n(c3ccccc13)C[C@H]1OC(C)(C)O[C@@H]21	> 100	> 100	> 87.6	> 100	> 100	> 100	> 100	> 100	> 100	> 100									
COc1cc(OC)c(OC)cc1/C=N/N=C(\N)NO	> 100	> 100	> 100	> 100	> 100	> 100	> 100	> 100	93.5	> 100									
COc1cc2c(c(OC)c1OC)C(=O)[C@H](O)[C@H]2NC(N)=O	> 100	> 100	> 100	> 100	> 100	> 100	> 100	> 100	> 100	> 100									
COc1ccc(NC(=O)CC(=O)N2N=C(C)C(N=Nc3ccc(S(=O)(=O)c4ccc(N=NC5C(=O)N(C(=O)CC(=O)Nc6ccc(OC)cc6)N=C5C)cc4)cc3)C2=O)cc1 (stereo not given)	> 100	> 100	> 100	> 100	> 100	> 100	> 100	> 100	> 100	> 100									
CCCC(=O)NC1=C(NCC)C(=O)c2ccccc2C1=O	> 100	> 100	> 100	> 100	78.1	> 100	> 100	> 100	> 100	> 100									
COCn1c2ccc(OC(C)=O)cc2c2c(=O)oc(N(C)C)nc21	> 100	> 100	> 100	> 100	> 100	> 100	> 100	> 100	> 100	> 100									
CC1CC[C@@H](C(C)C)[C@H](Oc2nnc(C3OC(CO)C(O)C3O)o2)C1 (stereo not given in full)	> 100	> 100	> 100	> 100	> 100	> 100	> 100	> 100	> 100	> 100									
C=Cc1c(C)c(OC)cc2c1Oc1ccc(OC)c(C)c1CC2	> 100	> 100	> 100	> 100	> 100	> 100	> 100	> 100	> 100	> 100									
O=C(NCc1cccnc1)NCc1cccnc1	> 100	> 100	> 100	> 100	> 100	> 100	> 100	> 100	> 100	> 100									

Compound	TGI (HCC-2998 colon) [µM]	TGI (K-562 leukemia) [µM]	TGI (MALME-3M melanoma) [µM]	TGI (MCF7 breast) [µM]	TGI (MDA-MB-435) [µM]	TGI (NCI-H460 lung) [µM]	TGI (SF-539 CNS) [µM]	TGI (SNB-19 CNS) [µM]	TGI (SNB-75 CNS) [µM]	TGI (TK-10 renal) [µM]	GI50 (HCC-2998 colon) [µM]	GI50 (K-562 leukemia)	GI50 (MALME-3M melanoma) [µM]	GI50 (MCF7 breast) [µM]	GI50 (MDA-MB-435) [µM]	GI50 (NCI-H460 lung) [µM]	GI50 (SF-539 CNS) [µM]	GI50 (SNB-75 CNS) [µM]	GI50 (TK-10 renal) [µM]
C[C@@H]1CC[C@H]2C(COCCOCC3=C(C(F)(F)F)O[C@@H]4O[C@@]5(C)CC[C@H]6[C@H](C)CC[C@@H]3[C@@]46OO5)=C(C(F)(F)F)O[C@@H]3O[C@@]4(C)CC[C@@H]1[C@]32OO4	> 100	> 100	9.26	> 100	> 100	> 100	> 69.8	> 100	> 100	> 100	> 11.9	< 0.0241 µM	< 0.01	0.0322	0.0426	< 0.0202	0.0264	> 4.64	0.0557
CCCCCC/C=C\CCCCCCCCCc1cccc(O)c1C(=O)O	> 100	> 100	> 100	> 100	> 100	> 100	> 100	> 100	> 100	> 100									
CC(=O)OCC(OC(C)=O)C(OC(C)=O)C(C=NN(C(C)=O)S(=O)(=O)c1ccc(/C=C2\NC(=O)NC2=O)cc1)OC(C)=O (stereo not given)	> 100	> 100	> 100	> 100	> 100	> 100	> 100	> 100	> 100	> 100									
O=c1oc2ccccc2c(Nc2ccc3c(c2)S(=O)(=O)c2ccccc2O3)c1[N+](=O)[O-]	52.6	71.3	64.6	56.6	97.3	91.7	65.2	> 100	52.4	62.6									
COC(=O)[C@@H]1CN(C(=O)CCc2ccccc2)C(=O)N1C(=O)OCc1ccccc1	> 100	> 100	> 100	> 100	> 100	> 100	> 100	> 100	> 100	> 100									
C#CCOCC12C=CC(O1)C1C(=O)N(C)C(=O)C12 (stereo not given)	> 100	> 100	> 100	> 100	> 100	> 100	> 100	> 100	> 100	> 100		46.4 µM and > 100 µM							
CC1=C2C(=O)c3ccccc3C(=O)[C@H]2[C@H]2CCO[C@H]2O1	48.1	74.5	35.9	23.6	39.8	45.1	43.9	> 100	43	67									
C=CCOC(=O)/C(=C\c1ccc(OC)c(OC)c1)c1ccc(OC)c(OC)c1	> 100	> 100	> 100	> 100	> 100	> 100	> 100	> 100	36.3	> 100									
O=c1oc2ccccc2cc1/C=N/N1C(=S)N(c2ccccc2)C(=Nc2ccccc2)C1=Nc1ccccc1	> 100	> 100	> 100	> 100	> 100	> 100	> 100	> 100	> 100	> 100									
CC(=O)OC1C(O)COC(O[C@H]2CC[C@]34C[C@]35CC[C@]3(C)C([C@@]6(C)CC[C@@H](C(C)(C)O)O6)[C@@H](O)C[C@@]3(C)C5C[C@H](OC3OCC(O)C(O)C3O)[C@H]4C2(C)C)C1OC1OCC(O)C(O)C1O (stereo not given in full)	> 100	> 100	> 100	> 100	> 100	> 100	> 100	> 100	> 100	> 100									
Cc1n[nH]c(=O)c2cc(-c3ccccc3)[nH]c12	> 100	> 100	> 100	> 100	> 100	> 100	> 100	> 100	> 100	> 100									
CCOC(=O)c1sc2c(c1OC(=O)c1cccs1)c(=O)n(-c1ccccc1)c(=S)n2-c1ccccc1	36.5	> 100	31.5	69.1	29.2	12.4	36	88.5	> 100	> 100									
O=C(N=S(NC(=O)c1ccccc1)C(Cl)(Cl)Cl)c1ccccc1 (stereo not given)	> 57.3	> 84	37.9	76.5	47.4	> 70.9	48.1	> 100	> 100	> 100									
CC1(CCC2C=CCC2)CCCNC1=S (stereo not given)	> 10	> 10	> 10	> 10	> 10	> 10	> 10	> 10	> 10	> 10									
Cc1ccc(-c2nc3ccc(Cl)cc3[nH]2)cc1	> 100	> 100	> 100	> 100	> 100	> 100	> 100	> 100	> 100	> 100									
COc1nc2c(c(=O)n1C)N(C(C)=O)C1C(N2)OCC(OC(C)=O)C1OC(C)=O (stereo not given)	> 10	> 10	> 10	> 10	> 10	> 10	> 10	> 10	> 10	> 10									
